Test results published in patent US20250177340A1, “Tartaric Acid Analogs and Uses Thereof” (Lapix Therapeutics, Inc., priority 2021, published 2025).

Columns and labels:
[1] = system: murine CD8+ T-cells; assay: Murine CD8+ T-cell proliferation concentration-response (CFSE), Example 7; assay type: cell-based, C57BL/6 mice; conditions: for CD8+ T-cell proliferation: 0.001-30 mM, absence of PS, low dose ConA; for model estimated EC80, CD8+ T-cell proliferation: in the presence of 0.1 mM PS, log-logistic model; for reversal of suppressive effects of PS on T-cell proliferation: increasing doses, 0.1 mM PS liposomes
Excerpt: (§1) In this study, the effects of increasing doses of compound B and compound C on proliferation (CFSE staining), activation (Granzyme B and IFN-γ), and checkpoint modulation (PD1 and TIM3) of murine CD8+ T-cells in the presence and absence of phosphatidylserine (PS) were explored.
(§2) Preparation of test materials: 30:70 PS:DMPC liposomes were synthesized in PBS. […] Compound C was first dissolved in a small volume of DMSO before diluting to the final desired concentration.
(§3) Tissue culture and dosing: Splenocytes of C57BL/6 mice were stained with CFSE and prepared, cultured, and dosed. Cells were seeded at 4×10^5 cells/well.
(§4) Controls: Two controls were used. A negative control dosed with 10 ng/ml IL-2 was used, and a positive control dosed with 20 μg/ml ConA and 10 ng/ml IL-2 was used.
(§5) Treatment: After ConA stimulation (10 μg/ml), cells were dosed with log 3 dilution of compound B or compound C to cover a range from 1×10^−3 to 30 mM in duplicates with or without 0.1 mM PS:DMPC liposomes. All wells were dosed with 10 ng/ml of IL-2.
(§6) Flow cytometer: Flow cytometer analysis was performed to assess cell proliferation by CFSE, activation by double staining for Granzyme B (GzmB) and IFN-γ, checkpoint modulation by double staining for PD-1 and TIM3.
(§7) Exposure-response analysis: Change from baseline was calculated for each marker as follows:
(§8) Concentration versus change was fitted to an appropriate three-, four- or five-parameter log-logistic model using “dre” package in “R.”
The fold change from baseline of CD8+ T-cells proliferation as a function of increasing doses of compound B was calculated using equation 1, where ResponseControl was the proliferation of cells treated with IL-2 alone and Responsetreatment was the proliferation at each dose of compound B. The baseline PS response was calculated using the same equation where Responsetreatment was the proliferation of cells treated with 0.1 mM PS.

[2] = system: Granzyme B and IFN-γ; assay: GzmB+/IFN-γ+ double-positive murine CD8+ T-cells, Example 7; assay type: cell-based, C57BL/6 mice
Excerpt: as §1, §2, §3, §4, §5, §6, §7, §8
(§9) The fold change from baseline GzmB+/IFN-γ+ double-positive CD8+ T-cells as a function of increasing doses of compound B was calculated using equation 1, where Responsecontrol was GzmB+/IFN-γ+ double-positive CD8+ T-cells in cells treated with IL-2 alone and Responsetreatment was GzmB+/IFN-γ+ double-positive CD8+ T-cells at each dose of compound B. The baseline PS response was calculated using the same equation with Responsetreatment as the GzmB+/IFN-γ+ double-positive CD8+ T-cells treated with 0.1 mM PS.

[3] = system: TIM3 and PD-1; assay: TIM3+/PD-1+ double-positive murine CD8+ T-cells, Example 7; assay type: cell-based, C57BL/6 mice; conditions: for effect on PS-stimulated TIM3+/PD-1+ double-positive CD8+ T-cells: 0.1 mM PS; for average reduction in TIM3+/PD-1+ double-positive CD8+ T-cells vs 0.1 mM PS treated cells / average reduction in TIM3+/PD-1+ double-positive CD8+ T-cells vs negative control: absence of PS, dose-independent
Excerpt: as §1, §2, §3, §4, §5, §6, §7, §8
as §9, with “baseline of TIM3+/PD-1+” for “baseline GzmB+/IFN-γ+”, “was TIM3+/PD-1+” for “was GzmB+/IFN-γ+”, “the TIM3+/PD-1+” for “the GzmB+/IFN-γ+”

[4] = system: KLRG-1; assay: Percent KLRG-1+/CD8+ T-cells in splenocytes after a single dose, melanoma murine model; assay type: in vivo, mice
Description: The pharmacodynamic (PD) effects of a single IV dose of Compound B in a melanoma murine model were evaluated. B16F10 melanoma cells were grown in RPMI 1640 media supplemented with 10% FBS and antibiotics (penicillin/streptomycin) using T75 flasks. When cells reached 70-80% confluency, they were treated with 3 ml of 0.25% Trypsin/EDTA. Afterward, detached cells were harvested. A single-cell suspension was prepared in PBS. An IV injection of 10^5 cells in mice marked day −3 of the experiment.
Animals were housed four per cage, and had access to food and water ad libitum. Compound B was dissolved in sterile PBS, and pH was adjusted to approximately 7.5. Sterile PBS served as control.
Three days after the IV injection of melanoma cells, animals in the baseline group (n=3) were sacrificed and their spleens were collected for KLRG-1, CTLA-4, and PD-1 analysis. At each predetermined time-point (24, 48, and 120 hours after dosing) three animals from each group were sacrificed for splenocyte analysis of KLRG-1, CTLA-4, and PD-1 expression levels, and expression levels were compared to baseline.
Spleens collected for splenocyte analysis were prepared into a single-cell suspension for cellular phenotyping by flow cytometry. Cells were stained and gated for CD8. Percent KLRG-1+, CTLA-4+, and PD-1+ CD8+ T-cells were evaluated using flow cytometry.
The PD effects of a single IV dose of Compound C were evaluated in a melanoma murine model conducted as described in Example 10. […] This study also evaluated whether Compound C was pharmacodynamically active orally.
In a prior study, Compound C was dosed at 1 mg IV QD for seven days. […] A single PO dose was chosen to confirm oral activity of Compound C. Compound C was dissolved in DMSO, and then diluted in sterile PBS. pH was adjusted to approximately 7.5.
The oral and intravenous PD effects of a single dose of Compound E were evaluated in a melanoma murine model conducted as described in Example 10.
Compound E was dissolved in DMSO, and then diluted in sterile PBS. pH was adjusted to approximately 7.5.

[5] = Oral bioavailability; assay type: in vivo
[6] = increasing doses, absence of PS

O=C(O)[C@H](O)[C@@H](O)C(=O)OCCCc1ccccc1 [Compound B, (2R,3R)-2,3-dihydroxy-4-oxo-4-(3-phenylpropoxy)butanoic acid]
CD8+ T-cell proliferation [1]: robust proliferation | target concentration considered an effective dose ([1]; based on Example 7 analysis): 0.1 mM | model estimated EC80, CD8+ T-cell proliferation [1]: 139 µM | reversal of suppressive effects of PS on T-cell proliferation [1]: partially reversed | fold increase in GzmB+/IFN-γ+ double-positive CD8+ T-cells vs PS treated cell ([2]; highest dose, 0.1 mM PS): 4.6 fold | fold increase in GzmB+/IFN-γ+ double-positive CD8+ T-cells vs negative control ([2]; highest dose, 0.1 mM PS): 2 fold | fold increase in GzmB+/IFN-γ+ double-positive CD8+ T-cells vs negative control [2, 6]: more than 16 fold | effect on PS-stimulated TIM3+/PD-1+ double-positive CD8+ T-cells [3]: reverse the stimulatory effects of PS | average reduction in TIM3+/PD-1+ double-positive CD8+ T-cells vs 0.1 mM PS treated cells [3]: about ⅔ | average reduction in TIM3+/PD-1+ double-positive CD8+ T-cells vs negative control [3]: about ⅗ | KLRG-1+/CD8+ T-cells, mean ([4]; 0.14 mg/mouse IV single dose, 24 h): 6.2% | KLRG-1+/CD8+ T-cells, mean ([4]; 0.14 mg/mouse IV single dose, 48 h): 4.8% | KLRG-1+/CD8+ T-cells, mean ([4]; 0.14 mg/mouse IV single dose, 120 h): 11.4% | KLRG-1+/CD8+ T-cells, mean ([4]; 0.7 mg/mouse IV single dose, 24 h): 6.5% | KLRG-1+/CD8+ T-cells, mean ([4]; 0.7 mg/mouse IV single dose, 48 h): 3.0% | KLRG-1+/CD8+ T-cells, mean ([4]; 0.7 mg/mouse IV single dose, 120 h): 11.7% | KLRG-1+/CD8+ T-cells, mean ([4]; 1.4 mg/mouse IV single dose, 24 h): 7.6% | KLRG-1+/CD8+ T-cells, mean ([4]; 1.4 mg/mouse IV single dose, 48 h): 2.5% | KLRG-1+/CD8+ T-cells, mean ([4]; 1.4 mg/mouse IV single dose, 120 h): 11.3% | time of nadir of exhaustion markers after dosing ([4]; single dose, KLRG-1, CTLA-4, PD-1): 48 h | bioavailability ([5]; mouse, in vivo, po, data not shown): ~30%

O=C(O)[C@H](O)[C@@H](O)C(=O)OCCC(c1ccccc1)c1ccccc1 [Compound C, (2R,3R)-4-(3,3-diphenylpropoxy)-2,3-dihydroxy-4-oxobutanoic acid]
doses at which proliferation overlapped with that in absence of PS ([1]; 0.1 mM PS): greater than 0.03 mM | CD8+ T-cell proliferation [1]: robust proliferation | model estimated EC80, CD8+ T-cell proliferation [1]: 14.6 µM | reversal of suppressive effects of PS on T-cell proliferation [1]: completely reversed | fold increase in GzmB+/IFN-γ+ double-positive CD8+ T-cells vs PS treated cell ([2]; highest dose, 0.1 mM PS): 18 fold | fold increase in GzmB+/IFN-γ+ double-positive CD8+ T-cells vs negative control ([2]; highest dose, 0.1 mM PS): 10 fold | fold increase in GzmB+/IFN-γ+ double-positive CD8+ T-cells vs negative control [2, 6]: about 30 fold | effect on PS-stimulated TIM3+/PD-1+ double-positive CD8+ T-cells [3]: can reverse the stimulatory effect of PS | average reduction in TIM3+/PD-1+ double-positive CD8+ T-cells vs 0.1 mM PS treated cells [3]: about ⅘ | average reduction in TIM3+/PD-1+ double-positive CD8+ T-cells vs negative control [3]: about ⅔ | KLRG-1+/CD8+ T-cells, mean ([4]; 0.025 mg/mouse IV single dose, 24 h): 4.9% | KLRG-1+/CD8+ T-cells, mean ([4]; 0.1 mg/mouse IV single dose, 24 h): 4.1% | KLRG-1+/CD8+ T-cells, mean ([4]; 0.25 mg/mouse IV single dose, 24 h): 3.4% | KLRG-1+/CD8+ T-cells, mean ([4]; 1 mg/mouse IV single dose, 24 h): 3.3% | oral pharmacodynamic activity ([4]; 2.5 mg PO single dose): not orally effective at the tested dose | KLRG-1+/CD8+ T-cells, mean ([4]; 2.5 mg/mouse po single dose, 24 h): 4.6% | decrease in KLRG-1+/CD8+ T-cells compared to baseline ([4]; 0.25- and 1-mg IV groups): approximately 15% | decrease in KLRG-1+/CD8+ T-cells compared to time match control ([4]; 0.25- and 1-mg IV groups): approximately 31% | change in KLRG-1+/CD8+ T-cells compared to baseline or control ([4]; remaining groups (0.025, 0.1 mg IV, 2.5 mg PO)): No meaningful changes | oral bioavailability ([5]; prior study): not orally bioavailable
